Reference: US20030069307A1, “2-(3,4-Dihydroxyphenyl)ethyl-substituted carbonic acid derivatives and their use” (priority 2001, published 2003)

How the values were obtained:
[1] = Rancimat accelerated autoxidation of lipids by air, squalene; settings: antioxidant power AP = IP(with test solution)/IP(control sample), squalene purified on alumina type N, stabilized with 1 ppm α-tocopherol
Method: (§1) The activity of the example compounds as antioxidants was compared with that of conventional antioxidants. The test system used was accelerated autoxidation of lipids by air with or without antioxidants, using the Rancimat apparatus (Deutsche Lebensmiftel-Rundschau 1974, vol. 70, pp. 57 to 65) (Rancimat is a registered trademark of Metrohm AG, Herisau, Switzerland).
(§2) The example compounds, vitamin C, α-tocopherol and 3,5-ditert-butyl-4-hydroxytoluene were dissolved in methanol or acetone and 100 μl of the respective test solution were added to a prepared oil sample of 3 g. Only solvent was added to a control sample. A constant dry air stream (20 I/h) was blown through the heated oil sample containing the test solution and the volatile oxidation products (principally short-chain fatty acids, such as formic acid or acetic acid) were collected in a receiver containing water. The conductivity of this aqueous solution was measured continuously and documented. The oxidation of (unsaturated) fats proceeds here only very slowly for a period, and then suddenly increases. The time until the increase is termed the induction period (IP).
(§3) From the equation below, the antioxidant power (AP) was obtained:
(§4) AP=IP(with test solution)/IP(control sample).
(§5) The higher the AP, the higher is the antioxidant activity.
The results for the experiment at 80° C. in squalene which was purified on alumina type N and stabilized with 1 ppm of α-tocopherol are shown in Table 7: […]

[2] = DPPH test for the elimination of free radicals (activity as free-radical scavenger); settings: DPPH 100 μmol/l in methanol, absorption at 515 nm; smaller = better
Method: The activity of the exemplary compounds as free-radical scavengers was compared with conventional free-radical scavengers. For this, the DPPH (1,1-diphenyl-2-picryl-hydrazyl) test for the elimination of free-radicals was employed (Lebensm.-Wiss. u. Technol., 1995, vol. 28, pp. 25 to 30).
DPPH was dissolved in methanol to give a concentration of 100 μmol/l. A series of dilutions of the example compounds, vitamin C, α-tocopherol and 3,5-ditert-butyl-4-hydroxytoluene were prepared in methanol. Methanol served as control. 2500 μl of the DPPH solution were mixed with 500 μl of each test solution and the decrease in absorption at 515 nm was read off until the decrease was less than 2% per hour. The activity of the test substances as free-radical scavengers was calculated from the following equation:
Activity as free-radical scavenger (%)=100−(absorption of the test compounds)/absorption of the control)×100.
From activity as free-radical scavenger (%) in a number of dilutions of test compounds, for each test compound the effective relative concentration EC50 (based on the initial concentration of DPPH, EC=c (test compound)/c(DPPH)) of a test compound was calculated at which the free-radical DPPH was eliminated by 50%. The smaller the EC50 values, the better is the free-radical scavenging action.

[3] = Rancimat accelerated autoxidation of lipids by air, soya bean oil; settings: antioxidant power AP = IP(with test solution)/IP(control sample), soya bean oil purified on alumina type N, 0.05% test substance, higher = better
Method: as §1, §2, §3, §4, §5

Cc1cc(C(C)(C)C)c(O)c(C(C)(C)C)c1 [3,5-Ditert-butyl-4-hydroxytoluene, reference compound]
AP in squalene at 80° C. containing 0.005% test substance [1]: 38 | EC50 (effective relative concentration, c(test compound)/c(DPPH), at which the free-radical DPPH was eliminated by 50%) [2]: 0.24 mol/mol | AP in soya bean oil at 100° C. containing 0.05% of test substance [3]: 4.8

COC(=O)NCCc1ccc(O)c(O)c1 [Example 1, N-[2-(3,4-Dihydroxyphenyl)ethyl]-O-methylurethane]
AP in squalene at 80° C. containing 0.005% test substance [1]: 76 | EC50 (effective relative concentration, c(test compound)/c(DPPH), at which the free-radical DPPH was eliminated by 50%) [2]: 0.27 mol/mol | AP in soya bean oil at 100° C. containing 0.05% of test substance [3]: 15.3

CC(C)[C@@H]1CC[C@@H](C)C[C@H]1OC(=O)NCCc1ccc(O)c(O)c1 [Example 2, N-[2-(3,4-Dihydroxyphenyl)ethyl]-O-[(1R,3R,4S)-menthyl]urethane]
AP in squalene at 80° C. containing 0.005% test substance [1]: 25 | EC50 (effective relative concentration, c(test compound)/c(DPPH), at which the free-radical DPPH was eliminated by 50%) [2]: 0.35 mol/mol | AP in soya bean oil at 100° C. containing 0.05% of test substance [3]: 7.1

CCCCCCOC(=O)NCCc1ccc(O)c(O)c1 [Example 3, N-[2-(3,4-Dihydroxyphenyl)ethyl]-O-hexylurethane]
AP in squalene at 80° C. containing 0.005% test substance [1]: 46 | EC50 (effective relative concentration, c(test compound)/c(DPPH), at which the free-radical DPPH was eliminated by 50%) [2]: 0.24 mol/mol | AP in soya bean oil at 100° C. containing 0.05% of test substance [3]: 9.8

CCCCC(CC)COC(=O)NCCc1ccc(O)c(O)c1 (centres unmarked) [Example 4, N-[2-(3,4-Dihydroxyphenyl)ethyl]-O-(2-ethylhexyl)urethane]
AP in squalene at 80° C. containing 0.005% test substance [1]: 50 | EC50 (effective relative concentration, c(test compound)/c(DPPH), at which the free-radical DPPH was eliminated by 50%) [2]: 0.25 mol/mol | AP in soya bean oil at 100° C. containing 0.05% of test substance [3]: 7.6

CCCCCCNC(=S)NCCc1ccc(O)c(O)c1 [Example 5, N-[2-(3,4-Dihydroxyphenyl)ethyl]-N′-hexylthiourea]
AP in squalene at 80° C. containing 0.005% test substance [1]: 59 | AP in soya bean oil at 100° C. containing 0.05% of test substance [3]: 14.4

CCCCCCNC(=O)NCCc1ccc(O)c(O)c1 [Example 6, N-[2-(3,4-Dihydroxyphenyl)ethyl]-N′-hexylurea]
AP in squalene at 80° C. containing 0.005% test substance [1]: 60 | EC50 (effective relative concentration, c(test compound)/c(DPPH), at which the free-radical DPPH was eliminated by 50%) [2]: 0.20 mol/mol | AP in soya bean oil at 100° C. containing 0.05% of test substance [3]: 26

O=C1O[C@H]([C@@H](O)CO)C(O)=C1O [Vitamin C, reference compound]
AP in squalene at 80° C. containing 0.005% test substance [1]: 0.7 | EC50 (effective relative concentration, c(test compound)/c(DPPH), at which the free-radical DPPH was eliminated by 50%) [2]: 0.27 mol/mol | AP in soya bean oil at 100° C. containing 0.05% of test substance [3]: 1.2

Cc1c(C)c2c(c(C)c1O)CC[C@@](C)(CCC[C@H](C)CCC[C@H](C)CCCC(C)C)O2 [α-Tocopherol, reference compound]
AP in squalene at 80° C. containing 0.005% test substance [1]: 39 | EC50 (effective relative concentration, c(test compound)/c(DPPH), at which the free-radical DPPH was eliminated by 50%) [2]: 0.25 mol/mol | AP in soya bean oil at 100° C. containing 0.05% of test substance [3]: 5.1
